For this assay, the target named is T1, hTLR9 (Homo sapiens, UniProt Q9NR96).
T1 construct: expressed in transfected cells; host or cells: HEK-Blue-hTLR9 cells (HEK293)
T1 sequence (Q9NR96 26-1032): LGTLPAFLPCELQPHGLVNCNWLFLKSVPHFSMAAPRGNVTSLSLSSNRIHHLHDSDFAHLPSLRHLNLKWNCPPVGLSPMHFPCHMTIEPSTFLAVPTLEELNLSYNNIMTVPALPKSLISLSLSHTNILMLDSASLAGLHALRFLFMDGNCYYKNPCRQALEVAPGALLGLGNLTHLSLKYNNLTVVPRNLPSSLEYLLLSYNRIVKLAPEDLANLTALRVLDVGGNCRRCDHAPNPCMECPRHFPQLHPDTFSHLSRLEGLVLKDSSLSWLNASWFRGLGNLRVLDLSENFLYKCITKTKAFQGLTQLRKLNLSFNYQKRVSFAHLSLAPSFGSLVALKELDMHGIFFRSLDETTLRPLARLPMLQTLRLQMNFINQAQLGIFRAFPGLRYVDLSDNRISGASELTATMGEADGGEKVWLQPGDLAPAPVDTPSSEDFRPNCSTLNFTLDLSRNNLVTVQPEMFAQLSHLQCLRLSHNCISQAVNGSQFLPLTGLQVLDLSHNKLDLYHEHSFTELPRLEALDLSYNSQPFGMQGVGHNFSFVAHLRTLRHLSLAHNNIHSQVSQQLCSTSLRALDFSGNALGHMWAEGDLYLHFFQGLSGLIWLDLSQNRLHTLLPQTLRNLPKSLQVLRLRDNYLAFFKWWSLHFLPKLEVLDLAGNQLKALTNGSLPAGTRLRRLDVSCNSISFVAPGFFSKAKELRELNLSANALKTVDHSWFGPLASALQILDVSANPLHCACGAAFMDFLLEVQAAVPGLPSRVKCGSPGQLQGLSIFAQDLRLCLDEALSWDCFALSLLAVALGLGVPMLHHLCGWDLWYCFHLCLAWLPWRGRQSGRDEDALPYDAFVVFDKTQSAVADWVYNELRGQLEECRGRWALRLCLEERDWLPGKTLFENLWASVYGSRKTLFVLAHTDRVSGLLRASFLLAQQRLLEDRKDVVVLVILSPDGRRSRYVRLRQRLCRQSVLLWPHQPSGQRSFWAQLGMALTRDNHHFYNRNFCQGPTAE
Briefly: hTLR9 antagonism (SEAP inhibition assay) in HEK-Blue-hTLR9 (HEK293) cells, ODN-2006 stimulated. It is filed as cell-based. The following applies: HEK-Blue hTLR9, 1 μM; SEAP, HEK-Blue-hTLR9 cells; read-out: hTLR9 inhibitory activity (% at 1 μM). As to the method: hTLR9 Antagonism (SEAP Inhibition Assay) in HEK293 Cell Lines
The SEAP reporter gene in HEK-Blue™-hTLR9 cells is placed under the control of the IFN-b minimal promoter fused to five NF-kB and AP-1 binding sites. The stimulation with a TLR9 ligand (ODN-2006) activates NF-kB and AP-1 which induces the production of SEAP. Levels of SEAP are determined with QUANTI-Blue™ detection medium that turns purple/blue in the presence of alkaline phosphatase. Decrease in the levels of SEAP production as indicated by reduction in absorbance at 650 nm is directly co-related with the TLR9 inhibitory activity of the antagonist (NCE).
HEK-Blue™-hTLR9 cells were maintained in DMEM with 10% FBS, 1% Penicillin/Streptomycin/Amphotericin (complete growth medium) and 0.2% Normocin. For the assay, cells were dissociated by washing in 1×PBS and re-suspended in complete DMEM. Cells were seeded at a density of 20000 cells per well; (40 μl per well) in a 384 well assay plate.
5 μl of 10× antagonist (NCE) was added to the cells in triplicates for each concentration. The plate was incubated for half an hour at 37° C. with 5% CO2. 5 μl of agonist (ODN-2006) was added and the plate was incubated overnight for 18 hours at 37° C. with 5% CO2. 5 μl of supernatant was transferred to a 384 well reading plate and to this 45 μl of Quanti-Blue™ detection reagent was added. The plate was then incubated for an hour at 37° C. SEAP activity in the supernatant was indicated by change in the pink color of Quanti-Blue™ detection reagent to purple/blue and the absorbance was read at 650 nm in the end point mode.
As for `CC(C)N1CCN(c2ccc(-c3nccc4[nH]c(CN5CCOCC5)cc34)cc2)CC1` [Example A1, 4-[[4-[4-(4-isopropylpiperazin-1-yl)phenyl]-1H-pyrrolo[3,2-c]pyridin-2-yl]methyl]morpholine], the inhibition at 1 µM was 100%.

For the compound `CN1CCN(c2ccc(-c3nccc4[nH]c(CN5CCOCC5)cc34)cc2)CC1` [Example A2, 4-[[4-[4-(4-methylpiperazin-1-yl)phenyl]-1H-pyrrolo[3,2-c]pyridin-2-yl]methyl] morpholine], the inhibition at 1 µM stood at 100%.

`CCN1CCN(c2ccc(-c3nccc4[nH]c(CN5CCOCC5)cc34)cc2)CC1` [Example A3, 4-[[4-[4-(4-ethylpiperazin-1-yl)phenyl]-1H-pyrrolo[3,2-c]pyridin-2-yl]methyl] morpholine]: the inhibition at 1 µM is 100%.

For `Cc1cc2[nH]c(CN3CCOCC3)cc2c(-c2ccc(N3CCN(C(C)C)CC3)cc2)n1` [Example A4, 4-[[4-[4-[4-isopropylpiperazin-1-yl)phenyl]-6-methyl-1H-pyrrolo[3,2-c]pyridin-2-yl]methyl] morpholine], the inhibition at 1 µM worked out at 100%.

As to `CCN1CCN(c2ccc(-c3nc(C)cc4[nH]c(CN5CCOCC5)cc34)cc2)CC1` [Example A5, 4-[[4-[4-(4-ethylpiperazin-1-yl)phenyl]-6-methyl-1H-pyrrolo[3,2-c]pyridin-2-yl]methyl] morpholine], the inhibition at 1 µM is 100%.

Take `CC(C)N1CCN(c2ccc(-c3nccc4c3cc(CN3CCOCC3)n4C)cc2)CC1` [Example A8, 4-[[4-[4-(4-isopropylpiperazin-1-yl)phenyl]-1-methyl-pyrrolo[3,2-c]pyridin-2-yl]methyl] morpholine]: the inhibition at 1 µM was found to be 100%.

`CN1CCN(c2ccc(-c3nccc4c3cc(CN3CCOCC3)n4C)cc2)CC1` [Example A9, 4-[[1-methyl-4-[4-(4-methylpiperazin-1-yl)phenyl]pyrrolo[3,2-c]pyridin-2-yl]methyl] morpholine]: the inhibition at 1 µM turned out to be 100%.

As for `CC(C)N1CCN(c2ccc(-c3nccc4[nH]c(CN5CCC(O)CC5)cc34)cc2)CC1` [Example A12, 1-[[4-[4-(4-isopropylpiperazin-1-yl)phenyl]-1H-pyrrolo[3,2-c]pyridin-2-yl]methyl] piperidin-4-ol], the inhibition at 1 µM amounted to 100%.

Turning to `CC(C)N1CCN(c2ccc(-c3nccc4[nH]c(CN5CCC6(CC5)CC(O)C6)cc34)cc2)CC1` [Example A13, 7-[[4-[4-(4-isopropylpiperazin-1-yl)phenyl]-1H-pyrrolo[3,2-c]pyridin-2-yl]methyl]-7-azaspiro[3.5] nonan-2-ol], the inhibition at 1 µM worked out at 100%.

On to `CC(C)N1CCN(c2ccc(-c3nccc4[nH]c(CN5CC(F)C5)cc34)cc2)CC1` [Example A16, 2-[(3-fluoroazetidin-1-yl)methyl]-4-[4-(4-isopropylpiperazin-1-yl)phenyl]-1H-pyrrolo[3,2-c]pyridine], for which the inhibition at 1 µM was 100%.

As for `CC(C)N1CCN(c2ccc(-c3nccc4[nH]c(CN5CCCCC5)cc34)cc2)CC1` [Example A17, 4-[4-(4-isopropylpiperazin-1-yl)phenyl]-2-(1-piperidylmethyl)-1H-pyrrolo[3,2-c]pyridine], the inhibition at 1 µM stood at 100%.

In the case of `CC(C)N1CCN(c2ccc(-c3nccc4[nH]c(CN5CCC(F)CC5)cc34)cc2)CC1` [Example A24, 2-[(4-fluoro-1-piperidyl)methyl]-4-[4-(4-isopropylpiperazin-yl)phenyl]-1H-pyrrolo[3,2-c] pyridine], the inhibition at 1 µM came out at 95.1%.

On to `CN1CCN(c2ccc(-c3nccc4[nH]c(CN5CCC(F)CC5)cc34)cc2)CC1` [Example A25, 2-[(4-fluoro-1-piperidyl)methyl]-4-[4-(4-methylpiperazin-1-yl)phenyl] - 1H-pyrrolo[3,2-c]pyridine], for which the inhibition at 1 µM came out at 95.2%.

With `Cc1cc2[nH]c(Cn3cccn3)cc2c(-c2ccc(N3CCN(C(C)C)CC3)cc2)n1` [Example A28, 4-[4-(4-isopropylpiperazin-1-yl)phenyl]-6-methyl-2-(pyrazol-1-ylmethyl)-1H-pyrrolo[3,2-c]pyridine], the inhibition at 1 µM is 91%.

As to `Cc1cc2[nH]c(CN3CCC4(CC3)CC(O)C4)cc2c(-c2ccc(N3CCN(C(C)C)CC3)cc2)n1` [Example A29, 7-[[4-[4-(4-isopropylpiperazin-1-yl)phenyl]-6-methyl-1H-pyrrolo[3,2-c]pyridin-2-yl]methyl]-7-azaspiro[3.5] nonan-2-ol], the inhibition at 1 µM came out at 100%.

Take `Cc1cc2[nH]c(CN3CCC4(CC3)CC(C)C4)cc2c(-c2ccc(N3CCN(C(C)C)CC3)cc2)n1` [Example A30, 4-[4-(4-isopropylpiperazin-1-yl)phenyl]-6-methyl-2-[(2-methyl-7-azaspiro[3.5]nonan-7-yl)methyl]-1H-pyrrolo[3,2-c]pyridine]: the inhibition at 1 µM came out at 96.7%.

Take `CC(C)N1CCN(c2ccc(-c3nc(C4CC4)cc4[nH]c(CN5CCOCC5)cc34)cc2)CC1` [Example A33, 4-[[6-cyclopropyl-4-[4-(4-isopropylpiperazin-1-yl)phenyl]-1H-pyrrolo[3,2-c]pyridin-2-yl]methyl] morpholine]: the inhibition at 1 µM stood at 90.4%.

Consider `CN1CCN(c2ccc(-c3nc(C4CC4)cc4[nH]c(CN5CCOCC5)cc34)cc2)CC1` [Example A34, 4-[[6-cyclopropyl-4-[4-(4-methylpiperazin-1-yl)phenyl]-1H-pyrrolo[3,2-c]pyridin-2-yl]methyl] morpholine], for which the inhibition at 1 µM turned out to be 82%.

Regarding `Cc1cc2c(cc(CN3CCOCC3)n2C)c(-c2ccc(N3CCN(C(C)C)CC3)cc2)n1` [Example A35, 4-[[4-[4-(4-isopropylpiperazin-1-yl]phenyl]-1,6-dimethyl-pyrrolo[3,2-c]pyridin-2-yl]methyl] morpholine], the inhibition at 1 µM was 96.3%.

With `Cc1nc(-c2ccc(N3CCN(C(C)C)CC3)cc2)c2cc(CN3CCOCC3)[nH]c2c1C` [Example A36, 4-[[4-[4-(4-isopropylpiperazin-1-yl)phenyl]-6,7-dimethyl-1H-pyrrolo[3,2-c]pyridin-2-yl]methyl] morpholine], the inhibition at 1 µM came out at 96.7%.

With `Cc1nc(-c2ccc(N3CCN(C)CC3)cc2)c2cc(CN3CCOCC3)[nH]c2c1C` [Example A37, 4-[[6,7-dimethyl-4-[4-(4-methylpiperazin-1-yl)phenyl]-1H-pyrrolo[3,2-c]pyridin-2-yl]methyl] morpholine], the inhibition at 1 µM was determined as 100%.

For `CCN1CCN(c2ccc(-c3nc(C)c(C)c4[nH]c(CN5CCOCC5)cc34)cc2)CC1` [Example A38, 4-[[4-[4-(4-ethylpiperazin-1-yl)phenyl]-6,7-dimethyl-1H-pyrrolo[3,2-c]pyridin-2-yl]methyl] morpholine], the inhibition at 1 µM amounted to 98.5%.

With `Cc1nc(-c2ccc(N3CCN(C(C)C)CC3)cc2)c2cc(CN3CCCCC3)[nH]c2c1C` [Example A39, 4-[4-(4-isopropylpiperazin-1-yl)phenyl]-6,7-dimethyl-2-(1-piperidylmethyl)-1H-pyrrolo[3,2-c]pyridine], the inhibition at 1 µM was 74.3%.

Take `Cc1nc(-c2ccc(N3CCN(C(C)C)CC3)cc2)c2cc(CN3CCCC3)[nH]c2c1C` [Example A40, 4-[4-(4-isopropylpiperazin-1-yl)phenyl]-6,7-dimethyl 2-(pyrrolidin-1-ylmethyl)-1H-pyrrolo[3,2-c)pyridine]: the inhibition at 1 µM stood at 80%.

For `c1cc2[nH]c(CN3CCOCC3)cc2c(-c2ccc(N3CCNCC3)cc2)n1` [Example A42, 4-[[4-(4-(piperazin-1-yl)phenyl)-1H-pyrrolo[3,2-c]pyridin-2-yl]methyl] morpholine], the inhibition at 1 µM was found to be 96%.

(Values after US9643967B2, “Pyrrolo[3,2-c]pyridine derivatives as TLR inhibitors” (TAKEDA PHARMACEUTICAL COMPANY LIMITED, priority 2013, dated 2017).)
